Key:
[1] = tested on: estrogen receptor preparations of rat prostates; test: Competitive 3H-estradiol binding to estrogen receptor of rat prostate cytosol; settings: for prost. ER/uterus ER: ratio RBA prostate-ER / RBA uterus-ER
[2] = target: T1, human estrogen receptor β (Homo sapiens, UniProt Q92731); test: Binding to human estrogen receptor β produced by Baculovirus/SF-9 expression system; settings: for hERβ RBA / ERβ/ERα: Table 2; for hERβ RBA: human ERβ from Baculovirus/SF-9, estradiol = 100; for ERβ/ERα: quotient RBA ERβ / RBA ERα
T1 construct: made in house; host or cells: Baculovirus/SF-9

hERβ [3] = test: Relative binding affinity to hERβ, cited from Kuiper et al.; design: species or system human; settings: Table 1; quotient of cited RBA hERβ / hERα
Excerpt: In this case, it is assumed that ERβ predominates in the rat prostates over ERα, and ERα predominates in rat uteri over ERβ.

[4] = target: T2, human estrogen receptor α (Homo sapiens, UniProt P03372); test: Binding to human estrogen receptor α produced by Baculovirus/SF-9 expression system; settings: Table 2; human ERα from Baculovirus/SF-9, estradiol = 100
T2 construct: made in house; host or cells: Baculovirus/SF-9
T2 sequence (P03372 1-595): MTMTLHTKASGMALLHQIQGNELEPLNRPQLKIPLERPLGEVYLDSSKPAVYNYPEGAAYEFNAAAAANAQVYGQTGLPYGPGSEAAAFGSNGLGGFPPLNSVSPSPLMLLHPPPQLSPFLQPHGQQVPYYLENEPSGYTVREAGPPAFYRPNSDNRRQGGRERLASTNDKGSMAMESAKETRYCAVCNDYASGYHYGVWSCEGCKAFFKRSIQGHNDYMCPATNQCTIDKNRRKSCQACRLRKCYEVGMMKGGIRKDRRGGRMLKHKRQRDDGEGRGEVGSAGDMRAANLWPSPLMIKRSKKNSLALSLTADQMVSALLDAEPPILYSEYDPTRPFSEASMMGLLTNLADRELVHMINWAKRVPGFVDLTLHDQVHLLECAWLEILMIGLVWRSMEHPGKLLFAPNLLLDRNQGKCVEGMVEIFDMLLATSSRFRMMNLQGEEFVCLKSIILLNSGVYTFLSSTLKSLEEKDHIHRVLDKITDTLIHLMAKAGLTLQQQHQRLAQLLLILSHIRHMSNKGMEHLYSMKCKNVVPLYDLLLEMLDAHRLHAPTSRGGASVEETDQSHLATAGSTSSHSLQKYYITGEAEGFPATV

hERβ [5] = settings: Table 1; estradiol = 100; cited from Kuiper et al. (1996); cited from earlier work
[6] = target: T3, estrogen receptor preparations of rat uteri (Rattus norvegicus, UniProt P06211); test: Competitive 3H-estradiol binding to estrogen receptor of rat uterus cytosol
T3 construct: The preparation of rat uterus cytosol, as well as the receptor test with the ER-containing cytosol; from tissue; host or cells: rat uterus cytosol
T3 sequence (P06211 1-600): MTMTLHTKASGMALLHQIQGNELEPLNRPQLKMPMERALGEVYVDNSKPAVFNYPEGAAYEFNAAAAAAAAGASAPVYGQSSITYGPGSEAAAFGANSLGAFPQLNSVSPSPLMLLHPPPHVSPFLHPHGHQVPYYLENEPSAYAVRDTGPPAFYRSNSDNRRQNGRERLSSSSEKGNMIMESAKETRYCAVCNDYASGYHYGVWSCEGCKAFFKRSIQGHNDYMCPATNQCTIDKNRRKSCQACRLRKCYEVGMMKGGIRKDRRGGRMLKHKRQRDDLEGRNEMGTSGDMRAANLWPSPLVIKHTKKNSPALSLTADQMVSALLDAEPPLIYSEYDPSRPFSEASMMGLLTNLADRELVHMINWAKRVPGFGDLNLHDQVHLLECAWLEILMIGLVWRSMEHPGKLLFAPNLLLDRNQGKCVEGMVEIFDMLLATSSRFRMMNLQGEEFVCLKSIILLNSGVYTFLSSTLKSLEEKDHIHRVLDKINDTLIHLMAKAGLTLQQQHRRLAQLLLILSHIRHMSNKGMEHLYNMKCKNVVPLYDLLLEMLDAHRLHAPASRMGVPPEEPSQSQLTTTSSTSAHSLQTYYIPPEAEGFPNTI

[7] = tested on: trabecular bone density in ovariectomized female rats; test: Bone studies: bone density of proximal tibia (pQCT) in ovariectomized rats; type: in vivo, rat; settings: s.c. once daily for 28 days, relative to bone mass loss of untreated ovariectomized vs sham-operated animals
Procedure: (§1) Three-month-old female rats are ovariectomized and treated once daily with the test compound immediately after the operation for 28 days. The administration is carried out subcutaneously in arachis oil/ethanol. The animals are sacrificed on the day after the last administration, and tibia as well as uteri are removed. The uteri are weighed, fixed and worked up for histological studies. The determination of bone density is carried out ex vivo on prepared long bones by means of pQCT (quantitative computer tomography). The measurements are made at a distance of 4–6 mm from the ball of the joint of the proximal tibia.
The ovariectomy reduces the density of the trabecular bone in the measured area by about 400 mg of Ca^2+/cm^3 to about 300 mg of Ca^2+/cm^3. By treatment with a compound of general formula I according to this invention, the degradation of the bone density is prevented or inhibited. The bone density in the proximal tibia was measured.
(§2) Estra-1,3,5(10)-triene-3,16α-diol reflects this in vivo in the greatly different amounts, which produce a 50% bone protection [3 μg/animal] or a 50% uterus stimulation [30 μg/animal], relative to the bone mass loss, which can be measured in ovariectomized, untreated female rats 28 days after the ovariectomy unlike in intact animals that are subjected to sham operations.

[8] = tested on: uterus of ovariectomized female rats; test: Bone studies: uterus stimulation (uterus weight) in ovariectomized rats; type: in vivo, rat; settings: s.c. once daily for 28 days
Procedure: as §1, §2

[9] = Table 1, 3H-estradiol as ligand, estradiol = 100

T1 sequence (Q92731 whole entry): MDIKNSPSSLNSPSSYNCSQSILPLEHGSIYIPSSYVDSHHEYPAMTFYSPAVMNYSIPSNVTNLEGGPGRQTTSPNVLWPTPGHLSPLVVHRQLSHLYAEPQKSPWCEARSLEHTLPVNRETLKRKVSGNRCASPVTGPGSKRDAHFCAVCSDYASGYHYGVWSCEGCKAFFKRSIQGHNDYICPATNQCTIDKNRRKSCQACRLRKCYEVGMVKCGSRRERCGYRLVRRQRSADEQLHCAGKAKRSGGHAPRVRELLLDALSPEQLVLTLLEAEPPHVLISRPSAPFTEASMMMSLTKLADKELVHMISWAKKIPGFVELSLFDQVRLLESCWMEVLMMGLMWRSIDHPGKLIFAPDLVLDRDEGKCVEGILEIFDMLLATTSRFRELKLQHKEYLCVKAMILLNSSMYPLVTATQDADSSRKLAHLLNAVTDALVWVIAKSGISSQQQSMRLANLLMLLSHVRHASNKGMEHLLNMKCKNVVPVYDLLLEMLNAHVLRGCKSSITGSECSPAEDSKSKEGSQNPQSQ

Compound | Rat prost. ER (RBA) [1, 9] | Rat prost. ER (RBA) ([1]; Table 2, estradiol = 100) | prost. ER/uterus ER ([1]; Table 2) | hERβ RBA [2] | ERβ/ERα [2] | hERα RBA [4] | Rat uterus ER (RBA) ([6]; Table 2, estradiol = 100) | other results
C[C@]12CC[C@H]3[C@@H](CC=C4C[C@@H](O)CC[C@@]43C)[C@@H]1CC[C@@H]2O [5-Androstenediol] | 5 | 5 | 50 | 10 | 6 | 1.7 | 0.1 | prost. ER/uterus ER ([1]; Table 1): 50; ERβ/ERα (hERβ [3]): 3; hERβ RBA (hERβ [5]): 17; Rat uterus ER (RBA) [6, 9]: 0.1
C[C@]12CC[C@@H]3c4ccc(O)cc4CC[C@H]3[C@@H]1C[C@@H](O)C2 [16α-Estradiol, estra-1,3,5(10)-triene-3,16α-diol] |  |  |  |  |  |  |  | Rat prost. ER (RBA) ([1]; Table 3): 50; Receptor binding ERβ (RBA)/ERα (RBA) ([2]; Table 3): 6; 50% bone protection [7]: 3 μg/animal; 50% uterus stimulation [8]: 30 μg/animal; Rat uterus ER (RBA) ([6]; Table 3): 9
C[C@]12CC[C@@H]3c4ccc(O)cc4CC[C@H]3[C@@H]1C[C@@H](O)C2=O [16α-hydroxyestrone] |  |  |  |  |  |  |  | RBA value on rat prostate estrogen receptor relative to RBA value on rat uterus estrogen receptor [1]: five times better; binding to human estrogen receptor β relative to human estrogen receptor α [2]: three times better
C[C@]12CC[C@@H]3c4ccc(O)cc4CC[C@H]3[C@@H]1CC[C@H]2O [17α-Estradiol] | 1.3 |  |  |  |  |  |  | 
C#C[C@@]1(O)C[C@@H]2CC[C@@H]3[C@H](CC[C@@]4(C)[C@H]3CC[C@@]4(O)C#C)[C@@]2(C)C1 [Anordiol] |  | <0.01 | <0.01 | 0.2 | 0.01 | 15 | 6.6 | 
O=c1oc2cc(O)ccc2c2oc3cc(O)ccc3c12 [Coumestrol] |  |  |  | 100 |  |  |  | 
C[C@]12CC[C@@H]3c4ccc(O)cc4CC[C@H]3[C@@]13CC[C@]2(O)[C@H](O)C3 [Cyclotriol] |  | 17 | 0.3 | 10 | 0.3 | 36 | 50 | 
C[C@]12CC[C@@H]3c4ccc(O)cc4CC[C@H]3[C@@H]1C[C@@H](O)[C@@H]2O [Estriol] |  |  |  |  |  |  |  | hERβ RBA (hERβ [5]): 21
O=c1c(-c2ccc(O)cc2)coc2cc(O)cc(O)c12 [Genisteine] | 10 | 10 |  |  |  |  |  | 
O=C(c1ccc(OCCN2CCCCC2)cc1)c1c(-c2ccc(O)cc2)sc2cc(O)ccc12 [Raloxifene] |  | 1.5 |  | 9 |  |  |  | 

Source: patent US7109360B1, “16-hydroxyestratrienes as selectively active estrogens” (priority 1999, dated 2006)
